Measured values reported in patent publication US20100009405A1, “Biosynthetic process for the preparation of gallidermin” (priority 2005, published 2010).
≈ marks a conversion by molar mass, not a printed value. Ends that are not written are not given here.

Experiments:
[1] = system: S. gallinarum (pGV5); experiment: Minimum inhibitory concentration of kanamycin used for selection; format: cell-based, Staphylococcus gallinarum; settings: B-medium
Experimental: FIG. 4 is a schematic representation of the strategy employed for the selection of gdmP knock-out strains. Cm: chloramphenicol; Kan: kanamycin; MIC: minimum inhibitory concentration; R: resistance; S: sensitivity;
A first S. gallinarum (pGV5) culture was started inoculating 10 ml kanamycin-supplemented ([…]) B-medium with a single colony of a transformed cell. Culture was incubated shaking with 225 rpm at 30° C., a temperature that allowed pGV5 to replicate as free plasmid (permissive temperature), until late stationary phase (16h). With this culture, new cultures were inoculated (1:100) and incubated shaking with 225 rpm at 30° C. into the late stationary phase (16 h). […] This step was repeated once, before diluting the cultures 1:100 into 100 ml B-medium containing no antibiotic. Growth at 40° C. was extended for another 24 hours.

[2] = system: sensitive test strain; experiment: Test-disc bioassay of antibacterial activity of gallidermin preparations; format: cell-based; settings: dilutions of stock solutions on test discs, same concentrations
Experimental: FIGS. 12A and B show the result of the proteolytic (trypsin) conversion of pregallidermins into gallidermin. […] Dilutions for a stock solution of either compound were applied onto test discs and incubated in the presence of a sensitive test strain. […] Pre-gallidermins (1.09 g/l) were incubated with trypsin (0.2 g/l) 1 h, RT, pH 6.5,
Of all proteases examined, only trypsin appeared to be suitable for a commercial and industrialised process. […] We have disclosed the feasibility to selectively cleave pre-gallidermins into mature gallidermin using serine-type proteases and trypsin in particular. While we have employed soluble enzyme preparations, alternatives, such as immobilized enzyme preparations, could be used instead. This would facilitate the repetitive use of such enzymes and avoid possible contaminations of the final product by trypsin, even though, trypsin is generally regarded as safe (GRAS).

| Molecule | MIC value [1] [µg/mL] | bioactivity compared with gallidermin isolated from the wild-type strain [2] |
| --- | --- | --- |
| NC[C@H]1O[C@H](O[C@H]2[C@H](O)[C@@H](O[C@H]3O[C@H](CO)[C@@H](O)[C@H](N)[C@H]3O)[C@H](N)C[C@@H]2N)[C@H](O)[C@@H](O)[C@@H]1O [kanamycin] | 7500 (≈ 15.5 mM) | – |
| gallidermin [in-situ activated gallidermin] (IASKFLCTPGCAKTGSFNSYCC; also: lantibiotic with dehydroamino residues and thioether bridges, places not given here, in-situ activated form; UniProt P21838 31-52, looked up) | – | same bioactivity |
